According to patent US9649279B2, “Fortified micronutrient salt formulations” (Massachusetts Institute of Technology, priority 2013, dated 2017):
“Also recorded” adds a separate entry of the source.

Legend:
[1] = Vitamin C stability and recovery under cooking conditions; type: physicochemical
Description: Formulations were tested for factors that increase stability and leakage characteristics for particular nutrients.
Ascorbic acid can become oxidixed and hydrolyzed, resulting in reduced bioactivity. Compounds specifically identified as stabilizing ascorbic acid, trans-Ferulic Acid (FA), Caffeic Acid (CA), and p-Coumaric Acid (p-CA), can be used in the particles and matrix to stabilize vitamin C.
To increase the loading of the ascorbic acid in the formulations, large amounts of ascorbic acid need to be added in the initial formulation process. However, the use of large amount of ascorbic acid can lower the pH of the water during the formulation, and this low pH condition can also dissolve the polymer we use to make the microparticles. To avoid this low pH issue, sodium ascorbate, which has equivalent bioactivity as ascorbic acid, can be used. Over 60 wt % of sodium ascorbate (NaAA) can be recovered after 2 hrs heating at 100° C.

[2] = In vitro release of micronutrients from EPO microspheres; type: physicochemical; conditions: for release in SGF / release in SGF after 0.5 hours: SGF at 37° C.; for release in water: water at room temperature and 100° C.
From the text: Eight essential micronutrients, presented in Table 3, were encapsulated and their release studied in vitro.
In-house assays were developed for micronutrient detection and determination of encapsulation efficiency and release kinetics.

[3] = enteric coated, three month storage, 25° C./20% RH and 45° C./60% RH; cited from earlier work
[4] = Release of EPO-coated micronutrients in water then SGF (ELISA); type: physicochemical; conditions: for release in SGF / release in water: 5% EPO coating; for release in SGF: SGF at 37° C., after one hour; for release in water: water at 25° C. and 100° C., one hour; for stability in the formulations by ELISA: not degraded or denatured
Description: To mimic food preparation then ingestion, the samples were submerged in 4 mL water (at 25° C. or 100° C.) for one hour and transferred to 4 mL simulated gastric fluid at 37° C. for two hours.

[5] = Vitamin D3 stability and recovery; type: physicochemical
Description: Vitamin D3 is not stable under heat. Alteration involves ring-closure that allows generation of pyro- and isopyro-isomers. […] However, it degraded in water at 100° C. after 2 hours. The recovery of vitamin D3 in water at 100° C. is concentration-dependent. When the starting amount of vitamin D3 increased, the recovery after 2 hours cooking also went up, from 2% (15 μg), to 12% (60 μg), to 40% (240 μg), and to 60% (1 mg). The encapsulation of vitamin D3 in EPO matrix helped to stabilize the vitamin D3. The characteristic absorbance peak of vitamin D3 was preserved in D3-EPO after 100° C. in water for 2 hours. […] With HPLC, the recovery of D3 in D3-EPO was quantified to be around 47%.

[6] = Autoclaving of vitamin B12 in EPO-HA microspheres; type: physicochemical; conditions: 16 psig and 250° F. for 30 minutes
Description: Vitamin B12 was encapsulated in the EPO-HA microspheres and subjected to autoclaving. The autoclaving conditions were 16 psig and 250° F. for 30 minutes. […] Thus, the formulations can survive and prevent the leakage of MNs under autoclaving conditions.

With O=C1O[C@H]([C@@H](O)CO)C([O-])=C1O.[Na+] [NaAA, sodium ascorbate] as the compound, how does the recovered after heating ([1]; 2 hrs heating at 100° C.) read?
The recovered after heating was “Over 60 wt %”.

For CCCCCCCCCCCCCCCC(=O)OC/C=C(C)/C=C/C=C(C)/C=C/C1=C(C)CCCC1(C)C [Vitamin A, Retinyl Palimitate], which “release in SGF” value ([2]; EPO-MS) is on record?
The value was “Complete release”.

And the release in water ([2]; EPO-MS)?
The release in water was “limited release”.

What about the “losses of the micronutrient after storage” value [3] of the same compound?
Its value is 50-99%.

With Nc1nc2ncc(CNc3ccc(C(=O)N[C@@H](CCC(=O)O)C(=O)O)cc3)nc2c(=O)[nH]1 [Vitamin B9, folic acid] as the compound, how does the “release in SGF after 0.5 hours” value ([2]; EPO-gelatin-microspheres) read?
The value was “Complete release”.

And the “release in 100° C. boiling water” value ([2]; EPO-gelatin-microspheres, two hours)?
The value was “Slight leakage”.

What about the “release at room temperature” value ([2]; EPO-gelatin-microspheres, water, room temperature, two hours) of the same compound?
Its value is “Limited release”.

What about the “release in SGF” value [4] of the same compound?
The value was “near complete release”.

What about the “release in SGF” value ([4]; listed as B9) of the same compound?
Its value is “released all”.

What about the release in water [4] of the same compound?
Its release in water is “negligible release”.

And the release in water ([4]; listed as B9)?
The release in water was “no release”.

What about the “stability in the formulations by ELISA” value [4] of the same compound?
The value was “stable”.

Which “release in SGF after 0.5 hours” value ([2]; EPO-MS) does the source give for O=C1O[C@H]([C@@H](O)CO)C(O)=C1O [Vitamin C, Ascorbic acid] here?
Its value is “Complete release”.

And the “release in water after two hours” value ([2]; EPO-MS, room temperature and 100° C. boiling water, two hours)?
Its value is “Limited release”.

What about the “release during cooking at 100° C.” value ([1]; increased concentration of the polymer coating) of the same compound?
Its value is “significantly reduced”.

What does the source list for C=C1CC[C@H](O)C/C1=C/C=C1\CCC[C@]2(C)[C@@H]([C@H](C)CCCC(C)C)CC[C@@H]12 [Vitamin D3, cholecalciferol]?
characteristic absorbance peak (UV spectrum) after heating ([5]; 100° C. in water for 2 hours): totally degraded; stability in acidic condition ([5]; SGF (pH=1.2) at 37° C.): stable; stability in water at 100° C. ([5]; water, 100° C., after 2 hours): degraded; stability in water at room temperature ([5]; water, room temperature): stable; release in SGF ([2]; EPO-MS): Fast and complete release; release in water ([2]; EPO-MS): slow and limited release

For Vitamin B12, which leakage under autoclaving [6] is on record?
The leakage under autoclaving was “No severe leakage”.

And the “effect of 1% oil during boiling on release” value ([2]; boiling, two hours, 1% oil added)?
Its value is “did not increase release”.

And the “release in SGF” value [4]?
Its value is “released all; also recorded: near complete release”.

And the release in water [4]?
Its release in water is “no release; also recorded: negligible release”.

And the “stability in the formulations by ELISA” value [4]?
The value was “stable”.
